Patent US20240229098A1, “BIOLUMINOGENIC ASSAY FOR DRUG-RESISTANCE BACTERIA DETECTION” (priority 2021, published 2024)

What was measured:
OXA-48 = target: T1, OXA-48 (Klebsiella pneumoniae, UniProt Q6XEC0); assay: Limit of detection of recombinant β-lactamase by bioluminescence (OXA-48); assay type: biochemical
T1 construct: made in house

KPC-3 = KPC-3 (Klebsiella pneumoniae, UniProt Q9F663, H272Y); assay: Limit of detection of recombinant β-lactamase by bioluminescence (KPC-3); assay type: biochemical; settings: 2 hours, room temperature; 3 SD of negative control
Chain of KPC-3 (Q9F663 25-293 H272Y): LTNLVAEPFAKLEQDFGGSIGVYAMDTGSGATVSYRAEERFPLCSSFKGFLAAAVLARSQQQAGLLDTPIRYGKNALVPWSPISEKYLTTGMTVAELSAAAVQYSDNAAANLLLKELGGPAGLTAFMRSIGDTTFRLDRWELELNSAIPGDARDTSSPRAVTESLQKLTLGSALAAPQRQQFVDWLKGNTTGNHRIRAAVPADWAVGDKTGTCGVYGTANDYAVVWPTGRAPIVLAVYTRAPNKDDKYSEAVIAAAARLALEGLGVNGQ

TEM-1 = TEM-1 (Escherichia coli, UniProt P62593); assay: Fluorescence turn-on of caged luciferin probes with recombinant TEM-1 bla; assay type: biochemical; set-up: made in house
Chain of TEM-1 (P62593 24-286 limits assumed): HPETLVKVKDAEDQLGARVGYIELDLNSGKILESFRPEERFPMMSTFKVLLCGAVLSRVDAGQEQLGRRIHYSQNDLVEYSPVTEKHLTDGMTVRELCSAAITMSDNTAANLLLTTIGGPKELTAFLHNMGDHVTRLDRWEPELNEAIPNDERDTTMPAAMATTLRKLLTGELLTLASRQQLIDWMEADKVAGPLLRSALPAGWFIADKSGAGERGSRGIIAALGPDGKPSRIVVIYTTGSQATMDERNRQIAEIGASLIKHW
Procedure: D-Bluco was evaluated as to whether it could be processed by β-lactamase to release luciferin with one of the most prevalent Ambler class A β-lactamases, TEM-1.
Both probes were evaluated to with TEM-1 bla, one of the most abundant β-Lactamases for initial testing. The fluorescent signal of D-Bluco and O-Bluco incubated with 100 nM TEM-1 bla was examined with a microplate reader over a period of 40 minutes.
General information: All chemicals were purchased from commercial sources and used without further purification. […] QuantiLum Recombinant luciferase (catalog number E1701) was purchased from Promega (Madison, WI). Reaction progress was monitored by analytical thin layer chromatography (TLC) with 0.25 mm silica gel 60F plates and visualized with fluorescent indicator (254 nm). Flash column chromatography was conducted using silica gel (SiliaFlash for flash column, 40-63 μm, 60 Å). The ^1H and ^13C NMR spectra were acquired on a Varian 500 MHz or 600 MHz magnetic resonance spectrometer. Data for ^1H NMR spectra are reported as follows: chemical shifts are reported as δ in units of parts per million (ppm) relative to chloroform-d (δ 7.26, s); multiplicities are reported as follows: s (singlet), d (doublet), t (triplet), q (quartet), dd (doublet of doublets), m (multiplet), or br (broadened); coupling constants are reported as a J value in Hertz (Hz); and the number of protons (n) for a given resonance is indicated nH and based on the spectral integration values. High resolution mass spectra were obtained on a Thermo Exactive Orbitrap LC/MS. HPLC was performed on a Dionex HPLC System (Dionex Corporation) equipped with a GP50 gradient pump and an inline diode array UV-Vis detector. A reversed-phase C18 (Phenomenax, 5 μm, 10×250 mm or Dionex, 5 μm, 4.6×250 mm) column was used with a MeCN (B)/H2O (A) gradient mobile phase containing 0.1% trifluoroacetic acid at a flow of 1 or 3 mL/min for the analysis. Fluorescence Spectra and kinetic experiments were collected by a SpectraMax iD3 multimode microplate reader (Molecular Device, San Jose, CA).

E. cloacae/AmpC = assay: RAPID BLI test, clinic isolate spiked into synthetic urine, E. cloacae/AmpC; settings: E. cloacae/AmpC in synthetic urine, D-Bluco 10 μM
Procedure: (§1) The modified rapid BLI protocol is applied. The signal of D-Bluco in PBS was subtracted before plotting. The working concentration of D-Bluco was 10 μM. All the studies were duplicated at room temperature in PBS (pH=7.4). Statistical significance was calculated using the unpaired two-tailed Student's t test (** p<0.0021, *** p<0.0002, **** p<0.0001, for comparison with 10^5 cfu/mL E. coli) (** p<0.0021, **** p<0.0001, ns: not significant). RLU indicates relative light units. Dotted line represents 3SD of the negative control.
(§2) Bacteria was mixed with 0.5% CHAPS lysis buffer for 15 min, and then incubated with D-Bluco at room temperature for another 15 min. The resulted mixture was combined with assay buffer which contains MgCl2, CoA, ATP, and luciferase for immediate bioluminescent reading.
(§3) Clinic isolates representing different classes (class A: Enterobacter cloacae/IMI, E. coli/TEM, K. pneumoniae/KPC; class B: E. coli/NDM, and class C: E. cloacae/AmpC) were spiked into synthetic urine samples.

K. pneumoniae/KPC = assay: RAPID BLI test, clinic isolate spiked into synthetic urine, K. pneumoniae/KPC; settings: K. pneumoniae/KPC in synthetic urine, D-Bluco 10 μM
Procedure: as §1, §2, §3

T1 sequence (Q6XEC0 23-265 limits assumed): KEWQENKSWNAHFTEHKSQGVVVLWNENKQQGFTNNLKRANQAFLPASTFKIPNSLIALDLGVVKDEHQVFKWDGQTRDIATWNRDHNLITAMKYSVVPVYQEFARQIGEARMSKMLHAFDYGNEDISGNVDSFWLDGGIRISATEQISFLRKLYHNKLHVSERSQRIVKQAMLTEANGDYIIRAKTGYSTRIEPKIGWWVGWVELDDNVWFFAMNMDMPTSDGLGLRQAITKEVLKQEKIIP

CN(C)c1ccc(/N=N/c2ccc(C(=O)NCCCCCC(=O)NC3C(=O)N4C(C(=O)O)=C(COc5ccc6nc(C7=N[C@@H](C(=O)O)CS7)sc6c5)C[S+]([O-])C34)cc2)cc1 (stereo partly drawn) [D-Bluco, 3-(((2-((S)-4-carboxy-4,5-dihydrothiazol-2-yl)benzo[d]thiazol-6-yl)oxy)methyl)-7-(6-(4-((E)-(4-(dimethylamino)phenyl)diazenyl)benzamido)hexanamido)-8-oxo-5-thia-1-azabicyclo[4.2.0]oct-2-ene-2-carboxylic acid 5-oxide]
efficiency of OXA-48 in hydrolyzing the probe (OXA-48): low efficiency
limit of detection (LOD) of OXA-48 (OXA-48; 2 hours, room temperature, 3 SD of negative control (D-Bluco in PBS)): 0.1 femtomole
limit of detection (LOD) of KPC-3 (all other β-lactamases) (KPC-3): 0.001 femtomole
fold increase in fluorescence emission in the presence of TEM-1 (TEM-1; 1 μM probe, TEM-1 100 nM, 40 min, PBS pH 7.4, r.t., excitation 330 nm, emission 530 nm): 37.6 fold
time of rapid fluorescence intensity increase before plateau (TEM-1; TEM-1 bla 100 nM, monitored over 40 minutes): ≤ 10 min
fluorescence emission in the absence of TEM-1 (TEM-1; without TEM-1, excitation 330 nm, emission 530 nm): little emission
concentration detected directly without culture (E. cloacae/AmpC): 10^2 cfu/mL
concentration detected directly without culture (K. pneumoniae/KPC): 10^3 cfu/mL
